Laboratory results reported in article PMC11030672 (Cancer Immunology, Immunotherapy : CII, 2008).

Columns and labels:
[1] = test system: HLA-A3; test: Assembly assay for peptide binding to MHC class I molecules; conditions: T2-A3 cells
[2] = test system: T2-A3 cells; test: 51Cr-release cytotoxicity of T cell clone 9 against peptide-pulsed T2-A3 cells; assay type: cell-based; conditions: peptide 10 μM; E:T ratios 9:1, 3:1, 1:1, 0,3:1; duplicates
[3] = test system: HLA-A3+ melanoma cell line FM3; test: 51Cr-release cytotoxicity of clone 9 against FM3 melanoma cells; assay type: cell-based; conditions: unlabeled T2-A3 cells pulsed with 10 μM peptide; inhibitor to target ratio 20:1; Fig. 4b, c

Q: Which “binding to HLA-A3 (in words)” value [1] does the source give for “ILRGSVAHK [Influenza NP265–273, reference compound]” here?
A: high affinity

Q: For RAGLQVRKNK [Rho1], which “binding to HLA-A3 (in words)” value [1] is on record?
A: only bound very weakly to HLA-A3

Q: What about the “lysis of peptide-pulsed T2-A3 cells by clone 9” value [2] of the same sequence?
A: effectively lysed

Q: What does the source list for RLGLQVRKNK [Rho1L2]?
A: cold target inhibition of FM3 killing by clone 9 [3]: completely abrogated the killing of FM3 melanoma cells; binding to HLA-A3 (in words) [1]: bound with intermediate affinity; lysis of peptide-pulsed T2-A3 cells by clone 9 [2]: effectively lysed
